Measurements from US20140235630A1, “COMPOSITIONS AND METHODS FOR THE TREATMENT OF PROLIFERATIVE DISEASES” (Beth Israel Deaconess Medical Center, Inc., priority 2011, published 2014).

Tested on: tumor microvasculature (CD31) of MMTV-CreBRCA1^f/fp53+/− tumors
Assay: Tumor vascularization: gross pathology, anti-CD31 stain, Chalkley count
Assay type: in vivo, mouse
Description: All animal experiments were conducted in accordance with IACUC-approved protocols at Beth Israel Deaconess Medical Center, Boston, and at the University of Vall d'Hebron, Barcelona, Spain. Female […] were obtained by breeding BRCA1 conditional knockout mice from the NIH repository (01XC8, strain C57BL/6) (Xu et al. Nat. Genet., 22: 37-43, 1999); with MMTV-Cre (Jackson Laboratory B6129-TgN(MMTV-Cre)4Mam) (Wagner et al. Nucleic Acids Res., 25: 4323-4330, 1997) and p53 knockout (Taconic Farms, P53N12-M, C57BL/6) (Donehower et al. Nature, 356: 215-221, 1992). […] The floxed or wild type status of Brca1, the presence of the MMTV-Cre transgene and the p53 heterozygosity were determined by PCR. Mice were examined for the occurrence of tumors twice weekly. When tumormetrics were performed, the length and width of the tumor was determined using calipers, and the tumor volume was determined (width^2×length/2). Tumor volume was used as a measure of growth and was recorded as ratio to tumor volume at diagnosis. […] Proc. Natl. Acad. Sci. USA., 105: 17079-17084, 2008) and dosed at 50 mg/kg/day. For patient-derived tumor grafts consent for tumor use was obtained from patients under a protocol approved by the Vall d'Hebron Hospital Clinical Investigation Ethical Committee. Tumors were subcutaneously implanted in 6-week-old female HsdCpb:NMRI-Foxn1nu mice (Harlan Laboratories, Italy) Animals were supplemented with 1 μM estradiol (Sigma) in the drinking water. After tumor graft growth, tumor tissue was re-implanted into recipient mice, which were randomized upon implant growth. For immunohistochemistry we used anti-cleaved caspase 3 (CC3) (9661S, Cell Signalling, Rabbit polyclonal Asp175), anti-Ki67 (9106-S; Thermo Scientific, Rabbit monoclonal SP6). All other antibodies used are described in the immunoblotting section below. All immunohistochemistries were done as described previously (Burga et al. Breast Cancer Res., 13:[…], 2011) including antigen retrieval with a citrate-buffer. […]

In the case of `Nc1cc(C(F)(F)F)c(-c2cc(N3CCOCC3)nc(N3CCOCC3)n2)cn1` [Compound A, 5-(2,6-dimorpholinopyrimidin-4-yl)-4-(trifluoromethyl)pyridin-2-amine], the “gross pathology of tumors” value (50 mg/kg/day via gavage, 2 and 6 weeks) is reported as “central pallor and, eventually, central necrosis”, the “Chalkley count of CD31-positive microvessels: size and number of blood vessels” value (before versus after treatment) is reported as “starkly reduced” and the “tumor microvasculature, anti-CD31 stain” value (center of tumor treated for 6 weeks) is reported as “diminished”.
